# Source: patent US20070087344A1, “Methods for characterizing signaling pathways and compounds that interact therewith” (BIOSEEK, INC., priority 2003, published 2007)
# “Also recorded” adds a separate entry of the source. Where two headings read alike, the source gives them in different places.
# Experiments:
# Format in all cases: cell-based, human
# [1] = system: Endothelial cells over-expressing single genes from NFkB, PI3K/Akt, RAS/MAPK or JAK/STAT pathways; assay: Compound profiling in 20 gene over-expression assays (NFkB, PI3K/Akt, RAS/MAPK, JAK/STAT), pairwise Pearson correlation; settings: DRB 10 micromolar, Apigenin 6 micromolar, 24 hours
# Method: Endothelial cells expressing 16 individual genes from NFκB, RAS, PI3K/AKT and JAK/STAT (IFN-γ and IL-4) pathways were treated with compounds for 24 hours. Where indicated additional cytokines were added to cells to reveal activity of the over-expressed genes (e.g. AKT1/IL1 means that IL-1-beta was added to AKT-over-expressing cells). Parameters measured were VCAM-1 for NFκB, PI3K, and RAS/MAPK pathway genes, HLA-DR for JAK/STAT(IFNγ) pathway genes, and VCAM-1 (IL4/VCAM-1) and Eotaxin-3 (IL4/Eot3) for JAK/STAT(IL4) pathway. […] Statistically significant correlations (permutation method described further in the text and in Example 1B) in the table are shaded (dark grey for correlation coefficients in the range of 0.75 to 1, and light grey for the range of 0.55 to 0.75).
# With a permutation technique, an average distribution of the correlation coefficients that will be obtained by chance is constructed and the values of the correlations that correspond to a required level of significance are obtained. The original similarity matrix is filtered using these values, thus providing a consistent way of identifying correlations coefficients with potential biological significance. This method also allows calculation of a false positive rate, providing the user with a way of balancing “hit rate” and stringency of correlation significance. […]
# [2] = system: MYD88 over-expressing endothelial cells; assay: Response to MYD88 over-expression in IL-1-beta-treated endothelial cells (VCAM-1, E-selectin); settings: IL-1-beta-treated cells; MYD88 inhibits VCAM-1 and E-selectin expression
# Method: (§1) A. Grouping Genes into Signal Transduction Pathways by Gene Over-Expression. Genes encoding key elements of pro-inflammatory pathways (IL-1, TNF-alpha, CD40, and IFN-gamma), the core NFkB pathway, the PI3K/Akt pathway, and the RAS/RAF/MEK pathway (see Table 2) were introduced into endothelial cells by retroviral transduction and allowed to express their encoded proteins for 48 hours, substantially as described in Example 1. The gene-modified endothelial cells were then subjected to 24 hour cytokine stimulation.
# (§2) Gene over-expression generally results in activation of the target pathway (in contrast to most pharmaceutical drugs, which are typically inhibitors).
# (§3) To explore this observation further, we re-examined the response to MYD88 and genes encoding representative members of the RAS/MAPK and NFkB pathways (RAS* and TNFRSF1A, respectively) in all individual cell systems. […] By contrast, the response induced by MYD88 in IL-1-beta-treated cells was similar to that induced by RAS*, the main effect being to inhibit expression of the adhesion molecules VCAM-1 and E-selectin. Over-expression of MYD88 thus appears to stimulate the RAS/MAPK pathway under these conditions. […] MYD88 (and IRAK1) are known to be involved in IL-1-induced but not in TNF-induced signaling, and PD098059 indeed had no effect on VCAM-1 expression in TNF-alpha-treated cells. […]
# [3] = system: RAS* over-expressing endothelial cells; assay: Response to RAS* over-expression in IL-1-beta-treated endothelial cells (VCAM-1, E-selectin); settings: IL-1-beta-treated cells; RAS* inhibits VCAM-1 and E-selectin expression
# Method: as §1, §2, §3
# [4] = system: TNF-alpha-treated cells; assay: VCAM-1 expression in TNF-alpha-treated endothelial cells
# Excerpt: as §2
# To explore this observation further, we re-examined the response to MYD88 and genes encoding representative members of the RAS/MAPK and NFkB pathways (RAS* and TNFRSF1A, respectively) in all individual cell systems. […] By contrast, the response induced by MYD88 in IL-1-beta-treated cells was similar to that induced by RAS*, the main effect being to inhibit expression of the adhesion molecules VCAM-1 and E-selectin. Over-expression of MYD88 thus appears to stimulate the RAS/MAPK pathway under these conditions. […] MYD88 (and IRAK1) are known to be involved in IL-1-induced but not in TNF-induced signaling, and PD098059 indeed had no effect on VCAM-1 expression in TNF-alpha-treated cells. Multi-system analysis can thus detect novel functional interrelationships between different signaling pathways.
# [5] = system: RAS*, RAF* or MEK1* over-expressing cells; assay: Profiles induced by over-expression of RAS*, RAF* or MEK1* genes
# Excerpt: The pathway information developed by practice of the methods of the present invention facilitates the in-depth characterization (mechanism-of-action studies) of chemical compounds. […] A high throughput approach can be used to test a compound against genes from known signaling pathways, as well as genes of unknown pathway origin.
# [6] = system: HUVEC stimulated with IL-1-beta, TNF-alpha and IFN-gamma; assay: Functional profiles in HUVEC stimulated with IL-1-beta, TNF-alpha and IFN-gamma compared with siRNA knock-down profiles; settings: E-selectin, HLA-DR, ICAM-1, IL-8, MCP-1, MIG, VCAM-1 readouts
# Excerpt: The cells used to generate functional profiles were HUVEC stimulated with a mixture of cytokines IL-1beta+TNF-alpha+IFN-gamma, and the readout parameters were E-selectin, HLA-DR, ICAM-1, IL-8, MCP-1, MIG and VCAM-1. Statistical analysis (permutation method) and generation of a two-dimensional map was done as described above.
# Early passage (<5) exponentially growing HUVEC cells were harvested, washed once with PBS, and resuspended at 2×10^6 cells in 100 microliter Nucelofection solution (Human Umbilical Vein Endothelial Cell Nucleofector Kit, AMAXA, Koeln, Germany). SiRNA (15 microliter of a 20 micromolar solution; Dharmacon, Lafayette, Colo.) was added to the cell suspension, transferred into an electroporation cuvette, and electroporated using the U-1 setting on an AMAXA Nucleofector device. The cell suspension was then transferred into a separate tube containing 3 ml of complete EGM-2 media (Clonetics), incubated at 37° C. for 10 minutes, and plated into 96-well microtiter plates (25,000 cells/well) for cytokine activation and ELISA analysis as described above. Statistical analyses and pairwise correlation analyses of functional profiles obtained by gene knock-down were performed in the manner as described for the gene-over-expression approach described above.
# [7] = system: HUVEC cell lines over-expressing TNF-alpha; assay: VCAM-1 expression (ELISA) in HUVEC over-expressing TNF-alpha
# [8] = system: HUVEC cell lines over-expressing IKBKB; assay: VCAM-1 expression (ELISA) in HUVEC over-expressing IKBKB
# [9] = system: HUVEC cell lines over-expressing RELA; assay: VCAM-1 expression (ELISA) in HUVEC over-expressing RELA
smiles,measurement,setting,value
OC[C@H]1O[C@@H](n2cnc3cc(Cl)c(Cl)cc32)[C@H](O)[C@@H]1O [DRB],Overlap of functional profile with those of 17-MG and beta-zearalenol,[1],only in the JAK/STAT portion of the overall profile
COc1cccc(-c2cc(=O)c3ccccc3o2)c1N [PD098059],Effect on the response induced by MYD88 over-expression,[2],reversed the effect
same,Effect on the response induced by RAS* over-expression,[3],reversed the effect
same,Effect on VCAM-1 expression,[4],no effect
same,"Effect on profiles induced by RAS*, RAF* or MEK1* genes",[5]; gene over-expressing cells,affected
Oc1ccc(-c2nc(-c3ccncc3)c(-c3ccc(F)cc3)[nH]2)cc1 [SB202190],Similarity of functional profile to siRNA-mediated dual knock-down of MEK3 and 6,[6],similar
O=c1cc(-c2ccc(O)cc2)oc2cc(O)cc(O)c12 [apigenin],Overlap of functional profile with those of 17-MG and beta-zearalenol,[1],only in the JAK/STAT portion of the overall profile
CC(C)Cc1ccc(C(C)C(=O)O)cc1 (stereo not shown) [ibuprofen],Inhibition of TNF-alpha induced VCAM-1 expression,[7],inhibits TNF-alpha and IKBKB genes
same,Inhibition of IKBKB induced VCAM-1 expression,[8],inhibits TNF-alpha and IKBKB genes
same,Inhibition of RELA induced VCAM-1 expression,[9],not in RELA over-expressing cells
N#CC(=C(/N)Sc1ccccc1N)/C(C#N)=C(/N)Sc1ccccc1N [Uo126],"Effect on profiles induced by RAS*, RAF* or MEK1* genes",[5],affected
"CC(Cc1ccc(O)c(O)c1)C(C)Cc1ccc(O)c(O)c1 (stereo not shown) [NDGA, nordihydroguaiaretic acid]",Inhibition of IKBKB induced VCAM-1 expression,[8],not IKBKB or RELA induced VCAM-1 expression; also recorded: inhibits only the TNF-alpha gene
same,Inhibition of RELA induced VCAM-1 expression,[9],not IKBKB or RELA induced VCAM-1 expression; also recorded: inhibits only the TNF-alpha gene
